Measured values: US8283361B2 (AstraZeneca AB, priority 2008, dated 2012)

Each compound was assayed against S. aureus GyrB ATPase (Staphylococcus aureus, UniProt P0A0K8) (assay: biochemical). Conditions: compound at 1 μM; one value per test if tested more than once; read-out: % Inhibition of S. aureus GyrB ATPase.
S. aureus GyrB ATPase, sequence (P0A0K8 whole entry): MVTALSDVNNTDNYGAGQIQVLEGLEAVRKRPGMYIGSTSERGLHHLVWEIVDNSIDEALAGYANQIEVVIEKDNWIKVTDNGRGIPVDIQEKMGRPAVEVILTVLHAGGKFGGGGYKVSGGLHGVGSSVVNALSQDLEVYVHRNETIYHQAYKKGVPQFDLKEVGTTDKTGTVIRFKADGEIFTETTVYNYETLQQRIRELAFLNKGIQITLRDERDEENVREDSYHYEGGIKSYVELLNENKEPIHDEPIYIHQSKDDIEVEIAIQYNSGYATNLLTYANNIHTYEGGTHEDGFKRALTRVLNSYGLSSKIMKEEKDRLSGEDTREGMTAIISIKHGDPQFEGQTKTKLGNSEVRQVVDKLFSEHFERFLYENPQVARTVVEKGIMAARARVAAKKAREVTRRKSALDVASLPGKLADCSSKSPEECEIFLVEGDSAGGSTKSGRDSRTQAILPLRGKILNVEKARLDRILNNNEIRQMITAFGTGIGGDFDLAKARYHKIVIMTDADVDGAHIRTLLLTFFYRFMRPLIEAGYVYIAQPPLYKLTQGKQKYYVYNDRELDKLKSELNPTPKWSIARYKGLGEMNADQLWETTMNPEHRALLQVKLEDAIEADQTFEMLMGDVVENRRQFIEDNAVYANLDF
S. aureus GyrB ATPase, sequence (P0AES4 whole entry, further chain): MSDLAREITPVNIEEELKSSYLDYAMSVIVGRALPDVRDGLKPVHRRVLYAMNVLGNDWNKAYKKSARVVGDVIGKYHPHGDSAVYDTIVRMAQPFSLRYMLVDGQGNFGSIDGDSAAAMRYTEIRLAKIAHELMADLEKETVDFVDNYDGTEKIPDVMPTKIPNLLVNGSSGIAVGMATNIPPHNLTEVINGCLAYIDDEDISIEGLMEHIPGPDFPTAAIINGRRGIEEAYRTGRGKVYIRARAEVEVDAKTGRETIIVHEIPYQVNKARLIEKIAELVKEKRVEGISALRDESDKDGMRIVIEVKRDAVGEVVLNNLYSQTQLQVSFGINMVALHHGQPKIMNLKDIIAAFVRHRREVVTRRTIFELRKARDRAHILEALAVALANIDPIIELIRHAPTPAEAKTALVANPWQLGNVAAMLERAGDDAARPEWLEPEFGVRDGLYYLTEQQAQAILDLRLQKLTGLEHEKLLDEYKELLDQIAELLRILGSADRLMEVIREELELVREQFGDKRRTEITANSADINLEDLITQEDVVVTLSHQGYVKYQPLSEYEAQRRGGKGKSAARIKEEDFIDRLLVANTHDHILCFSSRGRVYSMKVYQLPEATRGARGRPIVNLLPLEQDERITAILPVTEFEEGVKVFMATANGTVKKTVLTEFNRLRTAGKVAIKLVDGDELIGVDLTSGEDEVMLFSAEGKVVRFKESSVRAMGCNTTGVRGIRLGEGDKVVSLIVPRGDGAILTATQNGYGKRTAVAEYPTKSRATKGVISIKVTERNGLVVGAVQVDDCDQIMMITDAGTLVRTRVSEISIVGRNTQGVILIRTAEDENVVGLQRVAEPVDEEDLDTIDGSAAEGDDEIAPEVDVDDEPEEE
In short: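 IC50 values derive from 10-point titrations of compound (in DMSO). Phosphate formed from 250 μM ATP was quantified by acidic molybdate/malachite green after quenching.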
In the case of CCNC(=O)Nc1cc(-c2nc(C(F)(F)F)cs2)c(-c2ccc3c(c2)c(=O)c(C(=O)NC)cn3[C@H](C(=O)O)C(C)C)cn1 [Example 130, (S)-2-(6-(6-(3-ethylureido)-4-(4-(trifluoromethyl)thiazol-2-yl)pyridin-3-yl)-3-(methylcarbamoyl)-4-oxoquinolin-1(4H)-yl)-3-methylbutanoic acid], the inhibition at 1 µM is reported as 101%. CCNC(=O)Nc1cc(-c2nc(C(F)(F)F)cs2)c(-c2ccc3c(c2)c(=O)c(C(=O)N2CCNCC2)cn3C(COC)COC)cn1 [Example 140, 1-{5-[1-(1,3-dimethoxypropan-2-yl)-4-oxo-3-(piperazin-1-ylcarbonyl)-1,4-dihydroquinolin-6-yl]-4-[4-(trifluoromethyl)-1,3-thiazol-2-yl]pyridin-2-yl}-3-ethylurea] was tested, and the inhibition at 1 µM was 95%. Work on CCNC(=O)Nc1cc(-c2nc(C(F)(F)F)cs2)c(-c2ccc3c(c2)c(=O)c(C(=O)N2CCN(CCO)CC2)cn3C(COC)COC)cn1 [Example 141, 1-{5-[1-(1,3-dimethoxypropan-2-yl)-3-{[4-(2-hydroxyethyl)piperazin-1-yl]carbonyl}-4-oxo-1,4-dihydroquinolin-6-yl]-4-[4-(trifluoromethyl)-1,3-thiazol-2-yl]pyridin-2-yl}-3-ethylurea] yielded an inhibition at 1 µM of 97%. Work on CCNC(=O)Nc1cc(-c2nc(C(F)(F)F)cs2)c(-c2ccc3c(c2)c(=O)c(C(=O)N2CCN(S(=O)(=O)N(C)C)CC2)cn3C(COC)COC)cn1 [Example 142, 4-{[1-(1,3-dimethoxypropan-2-yl)-6-{6-[(ethylcarbamoyl)amino]-4-[4-(trifluoromethyl)-1,3-thiazol-2-yl]pyridin-3-yl}-4-oxo-1,4-dihydroquinolin-3-yl]carbonyl}-N,N-dimethylpiperazine-1-sulfonamide] yielded an inhibition at 1 µM of 97%. Work on CCNC(=O)Nc1cc(-c2nc(C(F)(F)F)cs2)c(-c2ccc3c(c2)c(=O)c(C(=O)N2CCN(C)CC2)cn3C(COC)COC)cn1 [Example 143, 1-(5-{1-(1,3-dimethoxypropan-2-yl)-3-[(4-methylpiperazin-1-yl)carbonyl]-4-oxo-1,4-dihydroquinolin-6-yl}-4-[4-(trifluoromethyl)-1,3-thiazol-2-yl]pyridin-2-yl)-3-ethylurea] yielded an inhibition at 1 µM of 95%. For CCNC(=O)Nc1cc(-c2nc(C(F)(F)F)cs2)c(-c2ccc3c(c2)c(=O)c(C(=O)N2CCN(C(C)=O)CC2)cn3C(COC)COC)cn1 [Example 144, 1-(5-{3-[(4-acetylpiperazin-1-yl)carbonyl]-1-(1,3-dimethoxypropan-2-yl)-4-oxo-1,4-dihydroquinolin-6-yl}-4-[4-(trifluoromethyl)-1,3-thiazol-2-yl]pyridin-2-yl)-3-ethylurea], the inhibition at 1 µM was 94%. With CCNC(=O)Nc1cc(-c2nc(C(F)(F)F)cs2)c(-c2ccc3c(c2)c(=O)c(C(=O)N2CCN(S(C)(=O)=O)CC2)cn3C(COC)COC)cn1 [Example 145, 1-{5-[1-(1,3-dimethoxypropan-2-yl)-3-{[4-(methylsulfonyl)piperazin-1-yl]carbonyl}-4-oxo-1,4-dihydroquinolin-6-yl]-4-[4-(trifluoromethyl)-1,3-thiazol-2-yl]pyridin-2-yl}-3-ethylurea] the inhibition at 1 µM was 92%. CCNC(=O)Nc1cc(-c2nc(C(F)(F)F)cs2)c(-c2ccc3c(c2)c(=O)c(C(=O)NCCCO)cn3C2CC2)cn1 [Example 147, 1-cyclopropyl-6-(6-(3-ethylureido)-4-(4-(trifluoromethyl)thiazol-2-yl)pyridin-3-yl)-N-(3-hydroxypropyl)-4-oxo-1,4-dihydroquinoline-3-carboxamide] was tested, and the inhibition at 1 µM was 102%. Compound CCNC(=O)Nc1cc(-c2nc(C(F)(F)F)cs2)c(-c2ccc3c(c2)c(=O)c(C(=O)NCCO)cn3C(COC)COC)cn1 [Example 148, 1-(1,3-dimethoxypropan-2-yl)-6-(6-(3-ethylureido)-4-(4-(trifluoromethyl)thiazol-2-yl)pyridin-3-yl)-N-(2-hydroxyethyl)-4-oxo-1,4-dihydroquinoline-3-carboxamide] has an inhibition at 1 µM of 93%.
